Data published in ChEMBL document CHEMBL4219066, “Identification and Mitigation of Reactive Metabolites of 2-Aminoimidazole-Containing Microsomal Prostaglandin E Synthase-1 Inhibitors Terminated Due to Clinical Drug-Induced Liver Injury” (J Med Chem, 2018).

Key:
[1] = Drug metabolism in rat hepatocytes assessed as N-carbamimidoyl-2-(difluoromethyl)-5-(pivalamidomethyl)nicotinamide formation at 2 uM after 4 hrs by LC-MS/MS analysis; type: ADME, cell-based, Hepatocyte
[2] = Drug metabolism in dog hepatocytes assessed as N-carbamimidoyl-2-(difluoromethyl)-5-(pivalamidomethyl)nicotinamide formation at 2 uM after 4 hrs by LC-MS/MS analysis; type: ADME, cell-based, Canis lupus familiaris, Hepatocyte
[3] = Drug metabolism in human hepatocytes assessed as N-carbamimidoyl-2-(difluoromethyl)-5-(pivalamidomethyl)nicotinamide formation at 2 uM after 4 hrs by LC-MS/MS analysis; type: ADME, cell-based, Hepatocyte
[4] = Drug metabolism in rat hepatocytes assessed as M2 metabolite formation at 2 uM after 4 hrs by LC-MS/MS analysis; type: ADME, cell-based, Hepatocyte
[5] = Drug metabolism in dog hepatocytes assessed as M2 metabolite formation at 2 uM after 4 hrs by LC-MS/MS analysis; type: ADME, cell-based, Canis lupus familiaris, Hepatocyte
[6] = Drug metabolism in human hepatocytes assessed as M2 metabolite formation at 2 uM after 4 hrs by LC-MS/MS analysis; type: ADME, cell-based, Hepatocyte
[7] = Drug metabolism in rat hepatocytes assessed as 2-(difluoromethyl)-5-((3-hydroxy-2,2-dimethylpropanamido)methyl)-N-(4-methyl-5-(4-(trifluoromethyl)phenyl)-1H-imidazol-2-yl)nicotinamide formation at 2 uM after 4 hrs by LC-MS/MS analysis; type: ADME, cell-based, Hepatocyte
[8] = Drug metabolism in dog hepatocytes assessed as 2-(difluoromethyl)-5-((3-hydroxy-2,2-dimethylpropanamido)methyl)-N-(4-methyl-5-(4-(trifluoromethyl)phenyl)-1H-imidazol-2-yl)nicotinamide formation at 2 uM after 4 hrs by LC-MS/MS analysis; type: ADME, cell-based, Canis lupus familiaris, Hepatocyte
[9] = Drug metabolism in human hepatocytes assessed as 2-(difluoromethyl)-5-((3-hydroxy-2,2-dimethylpropanamido)methyl)-N-(4-methyl-5-(4-(trifluoromethyl)phenyl)-1H-imidazol-2-yl)nicotinamide formation at 2 uM after 4 hrs by LC-MS/MS analysis; type: ADME, cell-based, Hepatocyte
[10] = Drug metabolism in dog hepatocytes assessed as 2-(difluoromethyl)-5-((3-hydroxy-2,2-dimethylpropanamido)methyl)-N-(4-(hydroxymethyl)-5-(4-(trifluoromethyl)phenyl)-1H-imidazol-2-yl)nicotinamide formation at 2 uM after 4 hrs by LC-MS/MS analysis; type: ADME, cell-based, Canis lupus familiaris, Hepatocyte
[11] = Drug metabolism in human liver microsomes assessed as metabolite M2 formation at 2 uM in presence of 1:1 ratio of unlabeled GSH and [glycine 13C2,15N]-labelled GSH after 0.5 hrs by HPLC-MS analysis; type: ADME, microsome
[12] = Drug metabolism in human liver microsomes assessed as M5 metabolite formation at 2 uM in presence of 1:1 ratio of unlabeled GSH and [glycine 13C2,15N]-labelled GSH after 0.5 hrs by HPLC-MS analysis; type: ADME, microsome
[13] = Drug metabolism in human liver microsomes assessed as metabolite M6 formation at 2 uM in presence of 1:1 ratio of unlabeled GSH and [glycine 13C2,15N]-labelled GSH after 0.5 hrs by HPLC-MS analysis; type: ADME, microsome
[14] = Drug metabolism in Sprague-Dawley rat plasma assessed as N-(4-methyl-5-(4-(trifluoromethyl)phenyl)-1H-imidazol-2-yl)acetamide formation at 1000 mg/kg, po measured after 2 hrs post dose by LC/MS analysis; type: ADME, organism-based; settings: in vivo
[15] = Drug metabolism in Beagle dog plasma assessed as N-(4-methyl-5-(4-(trifluoromethyl)phenyl)-1H-imidazol-2-yl)acetamide formation at 300 to 600 mg/kg, po measured after 2 hrs post dose by LC/MS analysis; type: ADME, organism-based, Canis lupus familiaris; settings: in vivo
[16] = Drug metabolism in Beagle dog plasma assessed as (2S,3S,4S,5R,6R)-3,4,5-trihydroxy-6-(4-methyl-5-(4-(trifluoromethyl)phenyl)-1H-imidazol-2-ylamino)tetrahydro-2H-pyran-2-carboxylic acid formation at 300 to 600 mg/kg, po measured after 2 hrs post dose by LC/MS analysis; type: ADME, organism-based, Canis lupus familiaris; settings: in vivo

Drug metabolism [1]: Metabolite_Detected
Drug metabolism [2]: Metabolite_Detected
Drug metabolism [3]: Metabolite_Detected
Drug metabolism [4]: Metabolite_Detected
Drug metabolism [5]: Metabolite_Detected
Drug metabolism [6]: Metabolite_Detected
Drug metabolism [7]: Metabolite_Detected
Drug metabolism [8]: Metabolite_Detected
Drug metabolism [9]: Metabolite_Detected
Drug metabolism [10]: Metabolite_Detected
Drug metabolism [11]: Metabolite_Detected
Drug metabolism [12]: Metabolite_Detected
Drug metabolism [13]: Metabolite_Detected
Drug metabolism [14]: Metabolite_Detected
Drug metabolism [15]: Metabolite_Detected
Drug metabolism [16]: Metabolite_Detected
SMILES: Cc1nc(NC(=O)c2cc(CNC(=O)C(C)(C)C)cnc2C(F)F)[nH]c1-c1ccc(C(F)(F)F)cc1
